{"source": "patent US20150119442A1", "about": "“Biocide agents against marine woodborers” (Teredo Marine Protection ApS, priority 2008, published 2015)", "key": {"[1]": {"conditions": "for Leaching of EDDS, specimen with end sealing / Leaching of EDDS, specimen without end sealing: after one week, mean ± SD", "excerpt": "The aim of this example is to show the leaching of EDDS in sea water, as well as the effect of the pH in sea water on the leaching.\nWood specimens were produced by the Danish Technological Institute, and made of sap wood of Pinus sylvestris in the dimension: 15×25×50 mm^3.\nThe impregnating solution used was an aqueous solution of 5% Octaquest® E30 (Innospec Limited, contains a 30% solution of trisodium-EDDS in water), 5% sodium carbonate and 5% ethanol. pH was adjusted to 4.5 with hydrochloric acid.\nThree different sea water solutions were prepared using artificial sea water salt mix (Tropic Marin® Sea Salt) at half the recommended concentration (15 g/L corresponding to a specific gravity of 1010 kg/m^3), normal concentration (30 g/L corresponding to a specific gravity of 1019 kg/m^3) and half concentration with pH adjusted to 6. Specific gravity of sea water in the oceans range between 1020 and 1030 kg/m^3. For each solution six containers were prepared each containing five specimens. Half of the specimens in each solution were end sealed at both ends using Conclad 300 2-K membrane (product no. 5305A, Condor Kemi A/S, Denmark). The end seal was applied to evaluate the radial leaching of the impregnating agent in order to simulate the surfaces exposed in harbour piers.\nThe specimens were placed in the containers and 500 ml of sea water solution was added to each container.\nAfter one week the water was collected and analysed for EDDS content by HPLC-UV; detection at 254 nm. The method used involved a reverse phase column and online complexing of EDDS with Cu(II)-ions. Quantifications were made from external standards (reference material used was “−30% Na3EDDS in water” from Fluka)."}, "marine woodborers": {"test_system": "marine woodborers", "assay": "Protective effectiveness against marine borers, EN 275 harbour exposure", "format": "in vivo, shipworm", "conditions": "6 months; compared to control subjects", "experimental": "The guidelines and recommendations in EN 275: 1992—Wood preservatives—Determination of the protective effectiveness against marine borers were followed unless otherwise stated.\nWood specimens were made of sapwood of Pinus sylvestris in the dimensions: 200×75×25 mm3, with a hole ø25 mm in the centre. The specimens were produced by the Danish Technological Institute.\nThe biocide-impregnating solution was prepared in different compositions according to Table 4. pH was adjusted with hydrochloric acid, and 10 specimens were used for each composition of biocide-impregnating solution and each harbour exposure site.\nThe specimens were attached to test racks and placed in two different harbours in Denmark: Skagen (northern part of Jutland) and Rudkøbing (Langeland) on 26 and 24 Apr. 2007, respectively (FIG. 1). The specimens were collected again ˜6 months later on 23 and 25 Oct. 2007, respectively.\nThe attack by marine borers was evaluated by cutting up the specimen in five pieces and recording the number of borers present and the percentage of the area which they had attacked."}}, "note": "Read-outs that look alike come from different tables or passages of the source.", "data": [{"smiles": "O=C(O)C[C@H](NCCN[C@@H](CC(=O)O)C(=O)O)C(=O)O", "note": "[EDDS, (S,S)-ethylenediamine-disuccinate]", "values": [{"measurement": "Leaching", "setting": "[1]; all sea water solutions, in seven days", "result": "about 30%"}, {"measurement": "Leaching from end sealed specimens compared with specimens without end sealing", "setting": "[1]; all three types of sea water", "result": "significantly lower"}, {"measurement": "Leaching of EDDS, specimen with end sealing", "setting": "[1]; sea water normal conc.", "result": "26.48 ± 0.92", "unit": "%"}, {"measurement": "Leaching of EDDS, specimen without end sealing", "setting": "[1]; sea water normal conc.", "result": "33.56 ± 0.62", "unit": "%"}, {"measurement": "Leaching of EDDS, specimen with end sealing", "setting": "[1]; sea water ½ conc. pH 6", "result": "30.07 ± 0.70", "unit": "%"}, {"measurement": "Leaching of EDDS, specimen without end sealing", "setting": "[1]; sea water ½ conc. pH 6", "result": "36.14 ± 0.89", "unit": "%"}, {"measurement": "Leaching of EDDS, specimen with end sealing", "setting": "[1]; sea water ½ conc.", "result": "32.08 ± 1.01", "unit": "%"}, {"measurement": "Leaching of EDDS, specimen without end sealing", "setting": "[1]; sea water ½ conc.", "result": "34.08 ± 0.59", "unit": "%"}, {"measurement": "Effectiveness against attack of shipworm", "setting": "marine woodborers", "result": "effective"}]}]}
